Measured values as given in ChEMBL document CHEMBL3046925, “,-Dibromoacetophenones mediated synthesis of some new 7H-7-alkoxy-3-alkyl/phenyl-6-aryl-s-triazolo[3,4-b][1,3,4]thiadiazines and their antimicrobial evaluation” (2012).
Values after ≈ are worked out from the molar mass of the structure shown. Active and inactive are the calls of the source. The calls are words filed in the database; no cut-off is given here.

Legend:
Candida albicans [1] = assay: Antimicrobial activity against Candida albicans MTCC 227 at 2 mg/ml by two-fold serial dilution method; assay type: functional
Candida albicans [2] = assay: Antimicrobial activity against Candida albicans MTCC 227 at 2 mg/ml by agar well diffusion method; assay type: functional; settings: for zone of inhibition at 2000 µg/mL: read-out: DIZ
Pseudomonas aeruginosa = assay: Antimicrobial activity against Pseudomonas aeruginosa MTCC 741 at 2 mg/ml after 24 hr by agar well diffusion method; assay type: functional, organism-based
Staphylococcus aureus [3] = settings: MTCC 96
Saccharomyces cerevisiae [4] = assay: Antimicrobial activity against Saccharomyces cerevisiae MTCC 170 after 24 hr by two-fold serial dilution method; assay type: functional
Saccharomyces cerevisiae [5] = assay: Antimicrobial activity against Saccharomyces cerevisiae MTCC 170 at 2 mg/ml after 24 hr by agar well diffusion method; assay type: functional; settings: for zone of inhibition at 2000 µg/mL: MTCC 170, 24 h, read-out: DIZ
Bacillus subtilis [6] = settings: MTCC 121
Description: (§1) Antimicrobial activity against Bacillus subtilis MTCC 121 at 2 mg/ml after 24 hr by agar well diffusion method

Staphylococcus aureus [7] = settings: MTCC 96; remark: listed apart in the source
Escherichia coli = assay: Antimicrobial activity against Escherichia coli MTCC 1652 at 2 mg/ml after 24 hr by agar well diffusion method; assay type: functional, organism-based
Bacillus subtilis [8] = settings: MTCC 121; remark: listed apart in the source
Description: (§2) Antimicrobial activity against Bacillus subtilis MTCC 121 at 2 mg/ml after 24 hr by two-fold serial dilution method

Bacillus subtilis [9] = assay: microbe, parasite or virus in culture; assay type: functional; settings: MTCC 121, 24 h
Description: as §2

Bacillus subtilis [10] = assay: microbe, parasite or virus in culture; assay type: functional; settings: MTCC 121, 24 h, read-out: DIZ
Description: as §1

Staphylococcus aureus [11] = assay: Antimicrobial activity against Staphylococcus aureus MTCC 96 at 2 mg/ml after 24 hr by agar well diffusion method; assay type: functional; settings: MTCC 96, 24 h, read-out: DIZ
Staphylococcus aureus [12] = assay: Antimicrobial activity against Staphylococcus aureus MTCC 96 after 24 hr by two-fold serial dilution method; assay type: functional; settings: MTCC 96, 24 h

Compound	MIC (Candida albicans [1])	zone of inhibition at 2000 µg/mL (Candida albicans [2]) [mm]	Activity (Pseudomonas aeruginosa)	DIZ (Staphylococcus aureus [3])	MIC (Saccharomyces cerevisiae [4]; MTCC 170, 24 h) [µg/mL]	zone of inhibition at 2000 µg/mL (Saccharomyces cerevisiae [5]) [mm]	DIZ (Bacillus subtilis [6])	MIC (Staphylococcus aureus [7])	Activity (Escherichia coli)	MIC (Bacillus subtilis [8])	diameter of the inhibition zone (DIZ) (Candida albicans [2])	MIC (Bacillus subtilis [9]) [µg/mL]	zone of inhibition at 2000 µg/mL (Bacillus subtilis [10]) [mm]	zone of inhibition at 2000 µg/mL (Staphylococcus aureus [11]) [mm]	MIC (Staphylococcus aureus [12]) [µg/mL]	MIC (Saccharomyces cerevisiae [4])	diameter of the inhibition zone (DIZ) (Saccharomyces cerevisiae [5])
CCOC1Sc2nnc(CC)n2N=C1c1ccc(F)cc1 (stereo not drawn)	128 µg/mL (≈ 418 µM)	13	inactive	inactive	128 (≈ 418 µM)	13.6	inactive	inactive	inactive	inactive							
CCCOC1Sc2nnc(CCC)n2N=C1c1ccccc1 (stereo not drawn)	inactive		inactive		64 (≈ 202 µM)	15.3			inactive		inactive	128 (≈ 405 µM)	16.3	13.6	256 (≈ 809 µM)		
CCOC1Sc2nnc(-c3ccccc3)n2N=C1c1ccccc1 (stereo not drawn)	64 µg/mL (≈ 190 µM)	15.6	inactive		32 (≈ 95.1 µM)	17.6			inactive			128 (≈ 380 µM)	17.6	24.3	16 (≈ 47.6 µM)		
C[C@@H]1[C@H](O)[C@@H](C)/C=C/C=C/C=C/C=C/C=C/C=C/C=C/[C@H](O[C@@H]2O[C@H](C)[C@@H](O)[C@H](N)[C@@H]2O)C[C@@H]2O[C@](O)(C[C@@H](O)C[C@@H](O)[C@H](O)CC[C@@H](O)C[C@@H](O)CC(=O)O[C@H]1C)C[C@H](O)[C@H]2C(=O)O [AMPHOTERICIN B]	100 µg/mL (≈ 108 µM)	14.3			100 (≈ 108 µM)	13.6											
O=C(O)c1cn(C2CC2)c2cc(N3CCNCC3)c(F)cc2c1=O [CIPROFLOXACIN]												5 (≈ 15.1 µM)	24	26.6	5 (≈ 15.1 µM)		
CC(C)OC1Sc2nncn2N=C1c1ccccc1 (stereo not drawn)	inactive		inactive		128 (≈ 467 µM)	13.3			inactive		inactive	256 (≈ 933 µM)	13.6	14.6	256 (≈ 933 µM)		
CCc1nnc2n1N=C(c1ccc(Cl)cc1)C(OC(C)C)S2 (stereo not drawn)	inactive		inactive		> 256	11.3			inactive		inactive	> 256	12.3	11.3	> 256		
CCOC1Sc2nnc(CC)n2N=C1c1ccc(C)cc1 (stereo not drawn)	inactive		inactive		> 256	10.6			inactive		inactive	128 (≈ 423 µM)	17	12.3	> 256		
COC1Sc2nnc(-c3ccccc3)n2N=C1c1ccccc1 (stereo not drawn)	inactive		inactive		32 (≈ 99.3 µM)	18.6			inactive		inactive	64 (≈ 199 µM)	18	25.6	16 (≈ 49.6 µM)		
CCc1nnc2n1N=C(c1ccccc1)C(OC(C)C)S2 (stereo not drawn)	inactive		inactive						inactive		inactive	> 256	12.3	13.6	256 (≈ 847 µM)	inactive	inactive
COC1Sc2nncn2N=C1c1ccccc1 (stereo not drawn)	128 µg/mL (≈ 520 µM)	13.3	inactive		128 (≈ 520 µM)	13.6			inactive			64 (≈ 260 µM)	18.6	19.6	64 (≈ 260 µM)		
CCOC1Sc2nnc(CC)n2N=C1c1ccccc1 (stereo not drawn)	inactive		inactive						inactive		inactive	64 (≈ 222 µM)	18.3	13.6	256 (≈ 888 µM)	inactive	inactive
CCOC1Sc2nncn2N=C1c1ccccc1 (stereo not drawn)	inactive	13.6	inactive		128 (≈ 492 µM)	13.6			inactive			64 (≈ 246 µM)	20.3	16.3	128 (≈ 492 µM)		
CCc1nnc2n1N=C(c1ccccc1)C(OC)S2 (stereo not drawn)	64 µg/mL (≈ 233 µM)	16.3	inactive		64 (≈ 233 µM)	15.3			inactive			32 (≈ 117 µM)	21.6	22.3	32 (≈ 117 µM)		
CCOC1Sc2nnc(CC)n2N=C1c1ccc([N+](=O)[O-])cc1 (stereo not drawn)	128 µg/mL (≈ 384 µM)	13.3	inactive	inactive	64 (≈ 192 µM)	15.6	inactive	inactive	inactive	inactive							
CCCOC1Sc2nnc(-c3ccccc3)n2N=C1c1ccccc1 (stereo not drawn)	inactive		inactive		64 (≈ 183 µM)	17.3			inactive		inactive	128 (≈ 365 µM)	17.3	20.6	64 (≈ 183 µM)		
CCOC1Sc2nnc(CC)n2N=C1c1ccc(Br)cc1 (stereo not drawn)	inactive		inactive						inactive		inactive	256 (≈ 697 µM)	13.6	12.3	> 256	inactive	inactive
CCCc1nnc2n1N=C(c1ccccc1)C(OCC)S2 (stereo not drawn)	inactive		inactive						inactive		inactive	128 (≈ 423 µM)	17.6	13.6	256 (≈ 847 µM)	inactive	inactive
CCCc1nnc2n1N=C(c1ccccc1)C(OC)S2 (stereo not drawn)	inactive		inactive		256 (≈ 888 µM)	12.6			inactive		inactive	64 (≈ 222 µM)	18.3	16	128 (≈ 444 µM)		
CCCOC1Sc2nnc(CC)n2N=C1c1ccc(Cl)cc1 (stereo not drawn)	inactive		inactive		> 256	10.3			inactive		inactive	128 (≈ 380 µM)	16.3	12.6	> 256		
CC(C)OC1Sc2nnc(-c3ccccc3)n2N=C1c1ccccc1 (stereo not drawn)	inactive		inactive		128 (≈ 365 µM)	13.3			inactive		inactive	256 (≈ 730 µM)	15.6	18.3	128 (≈ 365 µM)		
CCCOC1Sc2nnc(CC)n2N=C1c1ccccc1 (stereo not drawn)	inactive		inactive						inactive		inactive	256 (≈ 847 µM)	13.6	14	256 (≈ 847 µM)	inactive	inactive
CCCc1nnc2n1N=C(c1ccccc1)C(OC(C)C)S2 (stereo not drawn)	inactive		inactive						inactive		inactive	256 (≈ 809 µM)	14.6	12.3	> 256	inactive	inactive
CCc1nnc2n1N=C(c1ccc(Cl)cc1)C(OC)S2 (stereo not drawn)	128 µg/mL (≈ 415 µM)	13	inactive		128 (≈ 415 µM)	12.6			inactive			128 (≈ 415 µM)	16.3	19.3	64 (≈ 207 µM)		
CCCOC1Sc2nncn2N=C1c1ccccc1 (stereo not drawn)	inactive		inactive						inactive		inactive	64 (≈ 233 µM)	18.3	15.6	128 (≈ 467 µM)	inactive	inactive
